Measurements from patent US11905281B2 (Amgen Inc., priority 2017, dated 2024).

Key:
[1] = system: Phosphorylation of ERK1/2 in MIA PaCa-2 cells; experiment: Phospho-ERK1/2 MSD Assay, MIA PaCa-2 (Table 15 conditions: 4 hours compound treatment); assay type: cell-based; conditions: EGF stimulation, read-out: p-ERK IC50 (MIA PaCa-2)
Procedure: (§1) For compounds in Table 15, the following assay conditions were employed:
(§2) Phospho-ERK1/2 MSD Assay: MIA PaCa-2 (ATCC® CRL-1420™) and A549 (ATCC® CCL-185™) cells were cultured in RPMI 1640 Medium (ThermoFisher Scientific 11875093) containing 10% fetal bovine serum (ThermoFisher Scientific 16000044) and 1× penicillin-streptomycin-glutamine (ThermoFisher Scientific 10378016). Sixteen hours prior to compound treatment, MIA PaCa-2 or A549 cells were seeded in 96-well cell culture plates at a density of 25,000 cells/well and incubated at 37° C., 5% CO2. A compound dose-response titration was diluted in growth media, added to appropriate wells of a cell culture plate, and then incubated at 37° C., 5% CO2 for 4 hours. Following compound treatment, cells were stimulated with 10 ng/mL EGF (Roche 11376454001) for 10 min, washed with ice-cold Dulbecco's phosphate-buffered saline, no Ca^2+ or Mg^2+ (ThermoFisher Scientific 14190144), and then lysed in RIP A buffer (50 mM Tris-HCl pH 7.5, 1% Igepal, 0.5% sodium deoxycholate, 150 mM NaCl, and 0.5% sodium dodecyl sulfate) containing protease inhibitors (Roche 4693132001) and phosphatase inhibitors (Roche 4906837001). Cell lysates were stored frozen at −80° C. overnight. Phosphorylation of ERK1/2 in compound-treated lysates was assayed using Phospho-ERK1/2 Whole Cell Lysate kits (Meso Scale Discovery K151DWD) according to the manufacturer's protocol. Assay plates were read on a Meso Scale Discovery Sector Imager 6000, and data were analyzed using a 4-parameter logistic model to calculate IC50 values.

[2] = molecular target: T1, GDP-bound KRAS protein (aa 1-169), containing both G12C and C118A amino acid substitutions (Homo sapiens, UniProt P01116, C118A/G12C); experiment: Coupled Nucleotide Exchange Assay (Table 16 conditions: 5 min pre-incubation); assay type: biochemical; conditions: 5 min compound pre-incubation; SOS-mediated nucleotide exchange, AlphaScreen
T1 sequence (P01116 1-169 isoform P01116-2 G12C/C118A): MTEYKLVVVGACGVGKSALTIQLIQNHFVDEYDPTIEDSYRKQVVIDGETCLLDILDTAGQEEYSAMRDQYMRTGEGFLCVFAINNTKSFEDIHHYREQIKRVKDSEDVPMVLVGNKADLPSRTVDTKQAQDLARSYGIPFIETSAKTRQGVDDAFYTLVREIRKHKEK
Procedure: (§3) For compounds in Table 16, the following assay conditions were employed:
The assay plates were then read on a PerkinElmer EnVision Multilabel Reader, using AlphaScreen® technology, and data were analyzed using a 4-parameter logistic model to calculate IC50 values.

[3] = system: Phosphorylation of ERK1/2 in MIA PaCa-2 cells; experiment: Phospho-ERK1/2 MSD Assay, MIA PaCa-2 (Table 16 conditions: 2 hours compound treatment); assay type: cell-based; conditions: 10 ng/mL EGF for 10 min, read-out: p-ERK IC50 (MIA PaCa-2)
Procedure: as §3
Sixteen hours prior to compound treatment, MIA PaCa-2 or A549 cells were seeded in 96-well cell culture plates at a density of 25,000 cells/well and incubated at 37° C., 5% CO2. A compound dose-response titration was diluted in growth media, added to appropriate wells of a cell culture plate, and then incubated at 37° C., 5% CO2 for 2 hours. […] Phosphorylation of ERK1/2 in compound-treated lysates was assayed using Phospho-ERK1/2 Whole Cell Lysate kits (Meso Scale Discovery K151DWD) according to the manufacturer's protocol. Assay plates were read on a Meso Scale Discovery Sector Imager 6000, and data were analyzed using a 4-parameter logistic model to calculate IC50 values.

[4] = system: Phosphorylation of ERK1/2 in A549 cells; experiment: Phospho-ERK1/2 MSD Assay, A549 (Table 16 conditions: 2 hours compound treatment); assay type: cell-based; conditions: Homo sapiens, 10 ng/mL EGF for 10 min, read-out: p-ERK IC50 (A549)
Procedure: as §3
as §2, with “for 2” for “for 4”, “4906837001). […]” for “4906837001). Cell lysates were stored frozen at −80° C. overnight. Phosphorylation of ERK1/2 in compound-treated lysates was assayed using Phospho-ERK1/2 Whole Cell Lysate kits (Meso Scale Discovery K151DWD) according to the manufacturer's protocol.”

[5] = molecular target: T1, GDP-bound KRAS protein (aa 1-169), containing both G12C and C118A amino acid substitutions; experiment: Coupled Nucleotide Exchange Assay (Table 15 conditions: 2 hours pre-incubation); assay type: biochemical; conditions: 2 hours compound pre-incubation (Table 15 conditions)
Procedure: as §1
Following compound pre-incubation, purified SOS protein (aa 564-1049) and GTP (Roche 10106399001) were added to the assay wells and incubated for an additional hour. […] The assay plates were then read on a PerkinElmer EnVision Multilabel Reader, using AlphaScreen® technology, and data were analyzed using a 4-parameter logistic model to calculate IC50 values.

[6] = system: Phosphorylation of ERK1/2 in A549 cells; experiment: Phospho-ERK1/2 MSD Assay, A549 (Table 15 conditions: 4 hours compound treatment); assay type: cell-based; conditions: Homo sapiens, A549, 4 h, EGF stimulation, read-out: p-ERK IC50 (A549)
Procedure: as §1, §2

IC50 ([1]; Homo sapiens, MIA PaCa-2, 4 h) | SMILES | IC50 [2] | IC50 [4] | also measured
– | C=CC(=O)N1CCN(c2nc(=O)n(-c3ccncc3C3CC3)c3cc(-c4c(O)cccc4F)c(Cl)cc23)[C@@H](C)C1 (single isomer, unassigned) [Example 9-7-2] | – | – | IC50 [1]: 0.232 µM
22.6 µM | C=CC(=O)N1CCN(c2nnc(-c3c(C)ccc4[nH]ncc34)c3cc(-c4c(O)cccc4F)c(Cl)cc23)CC1 [Example 10-12, 1-(4-(7-chloro-6-(2-fluoro-6-hydroxyphenyl)-4-(5-methyl-1H-indazol-4-yl)-1-phthalazinyl)-1-piperazinyl)-2-propen-1-one] | – | – | –
– | C=CC(=O)N1CCN(c2nc(=O)n(-c3c(C)cccc3C(C)C)c3nc(-c4c(O)cccc4F)c(Cl)cc23)[C@@H](C)C1 [Example 39, 6-Chloro-7-(2-fluoro-6-hydroxyphenyl)-1-(2-methyl-6-(2-propanyl)phenyl)-4-((2S)-2-methyl-4-(2-propenoyl)-1-piperazinyl)pyrido[2,3-d]pyrimidin-2(1H)-one] | 0.063 µM | > 100 µM | IC50 ([3]; MIA PaCa-2 cells): 29 nM
3.07 µM | C=CC(=O)N1CCN(c2snc3c(F)c(-c4cc(O)cc5ccccc45)c(Cl)cc23)C(C(C)C)C1 (racemic) [Example 2-10, 1-(4-(5-chloro-7-fluoro-6-(3-hydroxy-1-naphthalenyl)-2,1-benzothiazol-3-yl)-3-(2-propanyl)-1-piperazinyl)-2-propen-1-one] | – | – | Coupled exchange IC50 [5]: 1.73 µM; IC50 [6]: > 100 µM
– | C=CC(=O)N1CCN(c2nc(=O)n(-c3scnc3C(C)C)c3nc(-c4c(O)cccc4F)c(Cl)cc23)[C@@H](C)C1 [Example 48, 6-Chloro-7-(2-fluoro-6-hydroxyphenyl)-4-((2S)-2-methyl-4-(2-propenoyl)-1-piperazinyl)-1-(4-(2-propanyl)-1,3-thiazol-5-yl)pyrido[2,3-d]pyrimidin-2(1H)-one] | 0.081 µM | > 10 µM | IC50 ([3]; Homo sapiens, MIA PaCa-2, MIA PaCa-2 cells): 63 nM
